Tests used:
CCRF-CEM [1] = experiment: Compound tested in vitro for inhibition of cytopathic activity of AZT-resistant HIV-2 on T4 lymphocytes (CEM cells): IA denotes inactive; type: functional, cell-based, Homo sapiens
CCRF-CEM [2] = experiment: Compound tested in vitro for inhibition of cytopathic activity of HIV-1 on T4 lymphocytes (CEM cells); type: functional, cell-based; conditions: Homo sapiens
CCRF-CEM [3] = experiment: Compound tested in vitro for inhibition of cytopathic activity of AZT-sensitive HIV-2 on T4 lymphocytes (CEM cells): IA denotes inactive; type: functional, cell-based, Homo sapiens
CCRF-CEM [4] = experiment: Compound tested in vitro for inhibition of cytopathic activity of Merck-resistant variant of AZT-resistant HIV-l (A17) on T4 lymphocytes (CEM cells): IA denotes inactive; type: functional, cell-based, Homo sapiens
CCRF-CEM [5] = experiment: Compound tested in vitro for inhibition of cytopathic activity of AZT-sensitive HIV-1 on T4 lymphocytes (CEM cells); type: functional, cell-based; conditions: Homo sapiens
CCRF-CEM [6] = experiment: Compound tested in vitro for inhibition of cytopathic activity of AZT-sensitive SIV on T4 lymphocytes (CEM cells): IA denotes inactive; type: functional, cell-based, Homo sapiens
CCRF-CEM [7] = experiment: Compound tested in vitro for inhibition of cytopathic activity of AZT-resistant HIV-1 on T4 lymphocytes (CEM cells); type: functional, cell-based; conditions: Homo sapiens
CCRF-CEM [8] = experiment: Compound tested in vitro for inhibition of cytopathic activity of AZT-resistant SIV on T4 lymphocytes (CEM cells): IA denotes inactive; type: functional, cell-based, Homo sapiens
CCRF-CEM [9] = experiment: Compound tested in vitro for inhibition of cytopathic activity of Merck-resistant variant of AZT-sensitive HIV-l (A17) on T4 lymphocytes (CEM cells): IA denotes inactive; type: functional, cell-based, Homo sapiens
CCRF-CEM [10] = experiment: Compound tested in Vitro for inhibition of cytopathic activity of HIV-1 on T4 lymphocytes (CEM cells); Inactive; type: functional, cell-based, Homo sapiens
CCRF-CEM [11] = experiment: Compound tested in Vitro for inhibition of cytopathic activity of HIV-1 on T4 lymphocytes (CEM cells); type: functional, cell-based; conditions: Homo sapiens

SMILES | EC50 (CCRF-CEM [10]) | IC50 (CCRF-CEM [10]) | EC50 (CCRF-CEM [11]) [µM] | IC50 (CCRF-CEM [11]) [µM] | other results
COc1ccc2c(c1)OCC1c3cc(O)c(OCc4ccccc4)cc3OC21 (stereo not given) |  |  |  |  | EC50 (CCRF-CEM [1]): Not Active; EC50 (CCRF-CEM [2]): 1.21 µM; IC50 (CCRF-CEM [2]): 40.5 µM; EC50 (CCRF-CEM [3]): Not Active; EC50 (CCRF-CEM [4]): Not Active; EC50 (CCRF-CEM [5]): 3.6 µM; EC50 (CCRF-CEM [6]): Not Active; EC50 (CCRF-CEM [7]): 1.3 µM; EC50 (CCRF-CEM [8]): Not Active; EC50 (CCRF-CEM [9]): Not Active
COc1ccc2c(c1)OCC1c3cc(CC=C(C)C)c(OCc4ccccc4)cc3OC21 (stereo not given) | Not Active | Not Active |  |  | 
COc1ccc2c(c1)OCC1c3cc(OC)c(OCc4ccccc4)cc3OC21 (stereo not given) |  |  | 5.7 | 69.4 | 
COc1ccc2c(c1)OCC1c3cc(O)c(OCC(C)C)cc3OC21 (stereo not given) |  |  | 2.28 | 24.5 | 
COC(=O)c1c(O)ccc2c1C1COc3ccccc3C1O2 (stereo not given) | Not Active | Not Active |  |  | 
COc1ccc2c(c1)OCC1c3cc(O)c(OCC4CCCCC4)cc3OC21 (stereo not given) |  |  | 1.46 | 22.2 | 
COc1ccc2c(c1)OCC1c3cc(O)c(OCc4ccc5ccccc5c4)cc3OC21 (stereo not given) |  |  | 3.35 | 34.2 | 
COc1ccc2c(c1)OCC1c3cc4c(cc3OC21)OCO4 (stereo not given) | Not Active | Not Active |  |  | 
COc1cc2c(cc1O)C1COc3ccccc3C1O2 (stereo not given) | Not Active | Not Active |  |  | 
COc1ccc2c(c1)OC1c3ccc(OC)cc3OCC21 (stereo not given) | Not Active | Not Active |  |  | 
COc1ccc2c(c1)OCC1c3ccc(OCc4ccccc4)cc3OC21 (stereo not given) |  |  | 31.2 | 200 | 
COc1ccc2c(c1)OCC1c3cc(O)c(OCc4cccc5ccccc45)cc3OC21 (stereo not given) |  |  | 0.43 | 38.5 | 
COc1cc2c(c(C)c1O)C1COc3ccccc3C1O2 (stereo not given) | Not Active | Not Active |  |  | 
Oc1cc2c(cc1OCc1ccccc1)OC1c3ccccc3OCC21 (stereo not given) | Not Active | Not Active |  |  | 
COc1ccc2c(c1)OCC1c3cc(O)c(OC)cc3OC21 (stereo not given) | Not Active | Not Active |  |  | 
COC(=O)c1c(O)ccc2c1C1COc3cc(OC)ccc3C1O2 (stereo not given) | Not Active | Not Active |  |  | 

— ChEMBL document CHEMBL1126967, “Synthetic pterocarpans with anti-HIV activity” (Bioorg Med Chem Lett, 1993)
